The values below come from ChEMBL document CHEMBL2040769, “Lipase-catalyzed preparation of chromomycin A₃ analogues and biological evaluation for anticancer activity” (Bioorg Med Chem Lett, 2012).

In assay [1] the test system is COLO 205. In words: Cytotoxicity against human COLO205 cells. Type of assay: functional, cell-based.
For assay [2], the system named is A2780. The assay is described as follows: Cytotoxicity against human A2780 cells. Type of assay: functional, cell-based.
In a further assay the test system is A549. The assay is described as follows: Cytotoxicity against human A549 cells. Type of assay: functional, cell-based.
The test system of another assay is BXPC-3. The assay is described as follows: Cytotoxicity against human BxPC3 cells. Type of assay: functional, cell-based.
The test system of the next assay is NIH3T3. In words: Cytotoxicity against mouse NIH/3T3 cells. The class given is cell-based.
Assay [3] concerns COLO 205. In words: Cytotoxicity against human COLO205 cells relative to chromomycin A3. Type of assay: functional. The conditions noted are these: pooled result: one value given for 4 cell lines, strains, targets or settings.
Assay [4] has as its system COLO 205. The assay is described as follows: Ratio of IC50 for chromomycin to compound for human COLO205 cells. The class given is functional.
Assay [5] concerns A2780. The assay is described as follows: Ratio of IC50 for chromomycin to compound for human A2780 cells. The class given is functional.

Turning to `CO[C@@H]1[C@H](O)C[C@@H](O[C@@H]2C[C@H](Oc3cc4cc5c(c(O)c4c(O)c3C)C(=O)[C@@H](O[C@H]3C[C@@H](O[C@H]4C[C@@H](O[C@H]6C[C@](C)(O)[C@@H](OC(C)=O)[C@H](C)O6)[C@H](O)[C@@H](C)O4)[C@H](O)[C@@H](C)O3)[C@H]([C@H](OC)C(=O)[C@@H](O)[C@@H](C)O)C5)O[C@H](C)[C@@H]2OC(C)=O)O[C@@H]1C` [CHROMOMYCIN A3], the 50% inhibitory concentration (IC50) with COLO 205 [1] turned out to be 63 nM; in the assay with A2780 [2], 40 nM; with A549 it was 100 nM; in the assay with BXPC-3, 130 nM; in the assay with NIH3T3, 1000 nM.
As to `CO[C@H]1[C@H](O)C[C@@H](O[C@@H]2C[C@H](Oc3cc4cc5c(c(O)c4c(O)c3C)C(=O)[C@@H](O[C@H]3C[C@H](O[C@H]4C[C@H](O[C@H]6C[C@@](C)(O)[C@@H](OC(C)=O)[C@H](C)O6)[C@H](O)[C@@H](C)O4)[C@H](O)[C@@H](C)O3)[C@H]([C@H](OC)C(=O)[C@@H](O)[C@@H](C)OC(C)=O)C5)O[C@H](C)[C@H]2OC(C)=O)O[C@@H]1C`, the IC50 with COLO 205 [1] is 65 nM; in the assay on A2780 [2], 250 nM; in the assay with A549, 200 nM; in the assay with BXPC-3 it was 450 nM; with NIH3T3, 800 nM. Also, in the assay on COLO 205 [3], the “Ratio IC50” value was 0.34.
On to `C=COC(=O)CCCCC(=O)O[C@H](C)[C@H](O)C(=O)[C@@H](OC)[C@@H]1Cc2cc3cc(O[C@H]4C[C@@H](O[C@@H]5C[C@@H](O)[C@H](OC)[C@@H](C)O5)[C@H](OC(C)=O)[C@@H](C)O4)c(C)c(O)c3c(O)c2C(=O)[C@H]1O[C@H]1C[C@H](O[C@H]2C[C@H](O[C@H]3C[C@@](C)(O)[C@@H](OC(C)=O)[C@H](C)O3)[C@H](O)[C@@H](C)O2)[C@H](O)[C@@H](C)O1`, for which the IC50 with COLO 205 [1] came out at 12 nM; in the assay with A2780 [2] it was 5 nM; in the assay with A549 it was 30 nM; in the assay with BXPC-3, 60 nM; in the assay on NIH3T3, 1200 nM. Besides, the results for the “Ratio IC50” value in the assay with COLO 205 [4], with A2780 [5] and with COLO 205 [3] were 8, 5 and 3.2, respectively.
With `CCC(=O)O[C@H](C)[C@H](O)C(=O)[C@@H](OC)[C@@H]1Cc2cc3cc(O[C@H]4C[C@@H](O[C@@H]5C[C@@H](O)[C@H](OC)[C@@H](C)O5)[C@H](OC(C)=O)[C@@H](C)O4)c(C)c(O)c3c(O)c2C(=O)[C@H]1O[C@H]1C[C@H](O[C@H]2C[C@H](O[C@H]3C[C@@](C)(O)[C@@H](OC(C)=O)[C@H](C)O3)[C@H](O)[C@@H](C)O2)[C@H](O)[C@@H](C)O1`, the IC50 in the assay with COLO 205 [1] worked out at 125 nM; with A2780 [2], 250 nM; in the assay with A549 it was 500 nM; in the assay with BXPC-3, 300 nM; in the assay with NIH3T3, 1000 nM. Also, the “Ratio IC50” value in the assay on COLO 205 [3] is 0.28.
Consider `CCCCCCCCCC(=O)O[C@H](C)[C@H](O)C(=O)[C@@H](OC)[C@@H]1Cc2cc3cc(O[C@H]4C[C@@H](O[C@@H]5C[C@@H](O)[C@H](OC)[C@@H](C)O5)[C@H](OC(C)=O)[C@@H](C)O4)c(C)c(O)c3c(O)c2C(=O)[C@H]1O[C@H]1C[C@H](O[C@H]2C[C@H](O[C@H]3C[C@@](C)(O)[C@@H](OC(C)=O)[C@H](C)O3)[C@H](O)[C@@H](C)O2)[C@H](O)[C@@H](C)O1`, for which the IC50 in the assay with COLO 205 [1] came out at 250 nM; in the assay on A2780 [2], 375 nM; in the assay on A549, 500 nM; in the assay on BXPC-3 it was 800 nM; in the assay with NIH3T3 it was 1000 nM. In the assay on COLO 205 [3], the “Ratio IC50” value was 0.17.
With `CCCC(=O)O[C@H](C)[C@H](O)C(=O)[C@@H](OC)[C@@H]1Cc2cc3cc(O[C@H]4C[C@@H](O[C@@H]5C[C@@H](O)[C@H](OC)[C@@H](C)O5)[C@H](OC(C)=O)[C@@H](C)O4)c(C)c(O)c3c(O)c2C(=O)[C@H]1O[C@H]1C[C@H](O[C@H]2C[C@H](O[C@H]3C[C@@](C)(O)[C@@H](OC(C)=O)[C@H](C)O3)[C@H](O)[C@@H](C)O2)[C@H](O)[C@@H](C)O1`, the IC50 in the assay with COLO 205 [1] turned out to be 35 nM; in the assay on A2780 [2], 65 nM; in the assay on A549 it was 185 nM; in the assay on BXPC-3, 450 nM; in the assay with NIH3T3 it was 750 nM. Also, in the assay on COLO 205 [3], the “Ratio IC50” value amounted to 0.45.
